Measured values: ChEMBL document CHEMBL3352598, “Synthesis, pharmacological evaluation and molecular modeling studies of triazole containing dopamine D3 receptor ligands” (Bioorg Med Chem Lett, 2015)

Assays:
D(3) dopamine receptor = D(3) dopamine receptor (Homo sapiens, UniProt P35462); assay: biochemical; format: cell-based, HEK293
D(2) dopamine receptor = D(2) dopamine receptor (Homo sapiens, UniProt P14416); assay: biochemical; format: cell-based, HEK293
D(4) dopamine receptor = biological target: T1, D(4) dopamine receptor (Homo sapiens, UniProt P21917); assay: Displacement of [125I]-IABN from human D4 receptor expressed in HEK293 cell membranes after 60 mins by filtration binding assay
T1 sequence (P21917 whole entry): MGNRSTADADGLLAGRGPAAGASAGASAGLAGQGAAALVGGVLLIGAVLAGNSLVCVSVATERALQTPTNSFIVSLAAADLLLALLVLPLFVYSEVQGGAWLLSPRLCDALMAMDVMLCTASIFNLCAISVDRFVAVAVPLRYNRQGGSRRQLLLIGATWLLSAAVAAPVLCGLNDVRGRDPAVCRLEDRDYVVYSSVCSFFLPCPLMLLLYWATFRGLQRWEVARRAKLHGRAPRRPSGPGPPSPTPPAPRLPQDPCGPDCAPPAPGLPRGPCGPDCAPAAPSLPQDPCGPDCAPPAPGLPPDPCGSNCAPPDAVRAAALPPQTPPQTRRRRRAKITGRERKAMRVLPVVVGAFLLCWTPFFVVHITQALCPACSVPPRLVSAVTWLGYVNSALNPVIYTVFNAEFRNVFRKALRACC

Homo sapiens = organism: Homo sapiens; assay: Selectivity index, ratio of Ki for D4 receptor to Ki for human D3 receptor
[1] = biological target: T2, 5-hydroxytryptamine receptor 1A (Homo sapiens, UniProt P08908); assay: Displacement of [3H]8-OH-DPAT from human 5HT1A receptor after 60 mins by filtration binding assay
T2 sequence (P08908 whole entry): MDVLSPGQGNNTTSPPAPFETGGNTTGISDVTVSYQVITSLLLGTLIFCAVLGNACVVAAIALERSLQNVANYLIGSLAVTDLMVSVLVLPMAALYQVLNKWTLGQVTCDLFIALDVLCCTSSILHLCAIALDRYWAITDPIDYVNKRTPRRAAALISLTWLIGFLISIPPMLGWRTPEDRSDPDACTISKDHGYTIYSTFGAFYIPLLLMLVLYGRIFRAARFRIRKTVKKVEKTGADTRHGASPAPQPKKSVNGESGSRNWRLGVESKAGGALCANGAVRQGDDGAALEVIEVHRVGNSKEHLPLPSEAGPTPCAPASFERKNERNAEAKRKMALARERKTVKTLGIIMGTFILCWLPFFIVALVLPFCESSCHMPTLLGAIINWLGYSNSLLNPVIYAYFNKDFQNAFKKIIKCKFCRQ

Chain of D(2) dopamine receptor (P14416 whole entry): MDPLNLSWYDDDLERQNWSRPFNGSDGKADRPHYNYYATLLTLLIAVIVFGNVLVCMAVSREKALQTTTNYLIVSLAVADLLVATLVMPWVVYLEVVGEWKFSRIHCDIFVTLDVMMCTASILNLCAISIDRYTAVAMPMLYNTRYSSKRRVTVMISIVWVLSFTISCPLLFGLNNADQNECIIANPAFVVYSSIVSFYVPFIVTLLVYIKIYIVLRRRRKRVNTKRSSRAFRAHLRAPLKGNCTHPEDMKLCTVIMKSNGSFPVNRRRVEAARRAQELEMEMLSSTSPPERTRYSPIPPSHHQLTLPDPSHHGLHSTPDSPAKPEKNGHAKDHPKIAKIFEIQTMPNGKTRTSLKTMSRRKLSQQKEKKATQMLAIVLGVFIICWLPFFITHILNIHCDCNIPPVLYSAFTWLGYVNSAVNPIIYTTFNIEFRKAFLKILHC
Chain of D(3) dopamine receptor (P35462 whole entry): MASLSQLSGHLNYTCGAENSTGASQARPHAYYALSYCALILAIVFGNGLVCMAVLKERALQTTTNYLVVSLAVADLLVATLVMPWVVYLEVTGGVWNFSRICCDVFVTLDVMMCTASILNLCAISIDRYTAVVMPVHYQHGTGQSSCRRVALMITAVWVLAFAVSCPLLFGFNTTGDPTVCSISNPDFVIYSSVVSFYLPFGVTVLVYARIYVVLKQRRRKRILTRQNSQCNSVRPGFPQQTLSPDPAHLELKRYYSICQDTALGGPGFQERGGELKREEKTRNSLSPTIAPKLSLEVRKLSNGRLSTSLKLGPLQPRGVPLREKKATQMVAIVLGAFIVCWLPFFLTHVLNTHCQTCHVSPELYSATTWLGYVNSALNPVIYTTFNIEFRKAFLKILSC

Ki (D(3) dopamine receptor)	Ki (D(2) dopamine receptor)	Ki (D(4) dopamine receptor)	Ratio Ki (Homo sapiens)	Ki [1]	Compound
36.3 nM	79.3 nM	–	–	–	COc1ccccc1N1CCN(CCCc2cn(-c3cccc4cnccc34)nn2)CC1
1.8 nM	17.7 nM	186 nM	103	5.8 nM	COc1ccccc1N1CCN(CCCCCc2cn(-c3cccc4cnccc34)nn2)CC1
25.4 nM	139 nM	–	–	–	COc1ccccc1N1CCN(CCCCc2cn(-c3ccccc3OC)nn2)CC1
2.9 nM	9.4 nM	–	–	–	COc1ccccc1N1CCN(CCCCc2cn(-c3ccccc3O)nn2)CC1
6.3 nM	109 nM	163 nM	26	153 nM	COc1ccccc1N1CCN(CCCCCc2cn(-c3ccc(-c4ccsc4)cc3)nn2)CC1
9.6 nM	44.1 nM	–	–	–	COc1ccccc1N1CCN(CCCc2cn(-c3ccc(SC)cc3)nn2)CC1
93.1 nM	272 nM	–	–	–	COc1ccccc1N1CCN(CCCc2cn(-c3ccccc3OC)nn2)CC1
4.7 nM	30.9 nM	–	–	–	COc1ccccc1N1CCN(CCCCc2cn(-c3ccccc3)nn2)CC1
26.5 nM	73.5 nM	–	–	–	COc1ccccc1N1CCN(CCCc2cn(-c3ccc(F)cc3)nn2)CC1
8.9 nM	158 nM	90 nM	10	7.4 nM	COc1ccccc1N1CCN(CCCc2cn(-c3ccc(-c4ccsc4)cc3)nn2)CC1
8.2 nM	94.3 nM	395 nM	48	1.3 nM	COc1ccccc1N1CCN(CCCCc2cn(-c3ccc(-c4ccsc4)cc3)nn2)CC1
3.1 nM	19.4 nM	–	–	–	COc1ccccc1N1CCN(CCCCCc2cn(-c3ccccc3)nn2)CC1
6.7 nM	62.6 nM	–	–	–	COc1ccccc1N1CCN(CCCCCc2cn(-c3ccc(N(C)C)cc3)nn2)CC1
21.1 nM	62.7 nM	–	–	–	COc1ccccc1N1CCN(CCCCCc2cn(-c3ccccc3OC)nn2)CC1
6.8 nM	12.8 nM	–	–	–	COc1ccccc1N1CCN(CCCc2cn(-c3ccccc3O)nn2)CC1
6.5 nM	46.7 nM	–	–	–	COc1ccccc1N1CCN(CCCCc2cn(-c3ccc(F)cc3)nn2)CC1
29.6 nM	162 nM	–	–	–	COc1ccccc1N1CCN(CCCc2cn(-c3ccc(N(C)C)cc3)nn2)CC1
2.1 nM	37.7 nM	200 nM	95	5.3 nM	COc1ccccc1N1CCN(CCCCc2cn(-c3ccc(SC)cc3)nn2)CC1
13.9 nM	171 nM	758 nM	55	9.4 nM	COc1ccccc1N1CCN(CCCCc2cn(-c3ccc(N(C)C)cc3)nn2)CC1
22.2 nM	64 nM	–	–	–	COc1ccccc1N1CCN(CCCc2cn(-c3ccccc3)nn2)CC1
3.2 nM	23.7 nM	–	–	–	COc1ccccc1N1CCN(CCCCCc2cn(-c3ccc(F)cc3)nn2)CC1
–	–	–	1120	7.5 nM	COc1ccccc1N1CCN(CCCCNC(=O)c2ccc(N(C)C)cc2)CC1
3.7 nM	42.3 nM	875 nM	237	6 nM	COc1ccccc1N1CCN(CCCCc2cn(-c3cccc4cnccc34)nn2)CC1
2.3 nM	26.6 nM	227 nM	99	3.9 nM	COc1ccccc1N1CCN(CCCCCc2cn(-c3ccc(SC)cc3)nn2)CC1
